Here are results for 3 compounds from US20180125921A1, “USE OF QBP1 PEPTIDE FOR THE INHIBITION OF MEMORY CONSOLIDATION” (CONSEJO SUPERIOR DE INVESTIGACIONES CIENTÍFICAS, priority 2015, published 2018).

Residues, ends and D or L forms follow the SMILES beside them.

The test system of series [1] is Orb2A PLD. Nature of the series: CR binding assay of Orb2A PLD amyloid. The following applies: protein 10 μM, peptide 50 μM, aged 7 days at 37° C.
Description: (§1) Buffers, time and storage conditions, and protein/peptide concentrations used in the aforementioned techniques were as follows: • AFM-SMFS: Experiments were performed using 2-3 μM polyproteins in 10 mM Tris-HCl pH 7.5 at room temperature with proteins incubated at 4° C. between sessions and NTA-Ni2+ functionalized coverslips. For experiments in the presence of the peptides QBP1 and SCR, 20 μM of the peptide were used dissolved in DMSO, and the samples were incubated overnight with the peptide at 4° C. before the measurement. • CD: For far-UV CD spectra it was used a protein concentration of 2-5 μM in 5 mM NaH2PO4, with 0.02% NaN3, pH 6.0. […] The secondary structure content of each protein and its evolution during incubation were estimated by spectra deconvolution using the CDNN analysis program (Bohm, G., et al., Quantitative analysis of protein far UV circular dichroism spectra by neural networks, Protein Eng (1992) 5 (3): 191-5). For thermal stability measurements, the ellipticity changes induced by increasing the temperature (at a constant heating rate of 60° C./h) were measured at 222 nm in 5 mM NaH2PO4 pH 6.0 using a protein concentration of 20 μM. • Turbidimetry: Protein samples used were at 10 μM in PBS+0.02% NaN3, pH 7.0 for all the kinetic experiments. […]
Series [2] concerns Orb2A PLD. Nature of the series: TEM imaging of Orb2A PLD oligomers and fibers. The following applies: protein 10 μM, peptide 50 μM, 7 days at 37° C.
Description: as §1
Series [3] concerns Drosophila melanogaster. The following applies: for short-term memory (courtship suppression immediately after training) / long-term memory (courtship suppression after 24 hours): Elav-Gal4 driven expression; for short-term memory (courtship suppression immediately after training): 5 min after training; for long-term memory (courtship suppression after 24 hours): 24 h after training; for effect on fly development / normal courtship behaviour: expression in the nervous system; for normal courtship behaviour: untrained flies.

The test system of series [4] is Orb2A PLD. Nature of the series: Turbidimetry of Orb2A PLD amyloidogenesis. The following applies: protein 10 μM, peptide 50 μM, 37° C., turbidity at 405 nm.
Description: as §1
For series [5], the system named is Orb2A PLD. In words: Far-UV CD spectroscopy of Orb2A PLD over time. The following applies: peptide five fold molar excess, 37° C.
Description: as §1
In series [6] the test system is Orb2A PLD. Nature of the series: AFM-SMFS conformational polymorphism of Orb2A PLD. Conditions: 20 μM peptide.
Description: Buffers, time and storage conditions, and protein/peptide concentrations used in the aforementioned techniques were as follows: • AFM-SMFS: Experiments were performed using 2-3 μM polyproteins in 10 mM Tris-HCl pH 7.5 at room temperature with proteins incubated at 4° C. between sessions and NTA-Ni2+ functionalized coverslips. For experiments in the presence of the peptides QBP1 and SCR, 20 μM of the peptide were used dissolved in DMSO, and the samples were incubated overnight with the peptide at 4° C. before the measurement. • CD: For far-UV CD spectra it was used a protein concentration of 2-5 μM in 5 mM NaH2PO4, with 0.02% NaN3, pH 6.0. The QBP1 or SCR (when used) was five fold molar excess relative to proteins (final concentrations 10 to 25 μM with the final concentration (v/v) of DMSO below 0.01%). After recording the first protein spectrum (hour 0), the protein was incubated at 37° C. without stirring and additional spectra were collected at the indicated times. The secondary structure content of each protein and its evolution during incubation were estimated by spectra deconvolution using the CDNN analysis program (Bohm, G., et al., Quantitative analysis of protein far UV circular dichroism spectra by neural networks, Protein Eng (1992) 5 (3): 191-5). For thermal stability measurements, the ellipticity changes induced by increasing the temperature (at a constant heating rate of 60° C./h) were measured at 222 nm in 5 mM NaH2PO4 pH 6.0 using a protein concentration of 20 μM. • Turbidimetry: Protein samples used were at 10 μM in PBS+0.02% NaN3, pH 7.0 for all the kinetic experiments. Samples were incubated at 37° C. without stirring. SCR and QBP1 peptides were used at 50 μM. • CR binding assay: Samples were aged for 7 days at 37° C. with 0.02% NaN3 and no stirring prior to performing the measurements. The protein samples (10 μM) were dialyzed in PBS pH 7.0 for the experiments. SCR and QBP1 peptides were used at 50 μM. • TEM imaging: Protein samples (10 μM) were dialyzed in PBS pH 7.0 for all the TEM measurements. Images were taken after 7 days of incubation at 37° C. in the presence of 0.02% NaN3 without stirring.
Series [7] concerns the target full-length Orb2A (Drosophila melanogaster, UniProt Q9VSR3). Nature of the series: Isothermal titration calorimetry (ITC) of peptide interaction with Orb2A. The following applies: 25° C., PBS pH 7.4, Orb2A injected into excess peptide; no quantitative analysis. A general note: Isothermal titration calorimetry measures the heat released or taken up as one component is titrated into another.
Description: Proteins were equilibrated in PBS, pH 7.4, by gel-filtration chromatography and the equilibration buffer was used to prepare the peptide solutions. Protein/peptide binding was tested by successive injections of protein sample (10 to 25 μl each) into the reaction cell loaded with peptide at high final [peptide]/[protein] molar ratios. The apparent heat of reaction for each injection was obtained by integration of the peak area. The heats developed on protein or peptide dilutions were determined in separate runs loading the sample cell or the injection syringe with buffer, respectively, in the conditions used for the binding experiments. […] Protein (Orb2A, 185 μM) and ligand (QBP1 and SCR, 300 μM and 51 μM, respectively) concentrations in the loading solutions were measured spectrophotometrically using their respective extinction coefficients. • Drosophila strains.

Series [8] deals with -synuclein (Homo sapiens, UniProt P37840). Conditions: cited from earlier work.
Series [9] has as its target T1, Sup35 (Saccharomyces cerevisiae, UniProt P05453).
T1 sequence (P05453 1-253 limits assumed): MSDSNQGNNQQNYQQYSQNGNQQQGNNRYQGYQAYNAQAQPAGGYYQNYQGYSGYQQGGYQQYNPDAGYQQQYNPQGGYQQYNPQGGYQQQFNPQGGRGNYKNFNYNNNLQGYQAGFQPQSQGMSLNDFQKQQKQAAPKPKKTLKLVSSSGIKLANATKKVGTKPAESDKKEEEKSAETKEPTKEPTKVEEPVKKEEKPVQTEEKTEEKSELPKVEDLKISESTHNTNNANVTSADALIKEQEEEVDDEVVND
The following applies: cited from earlier work.

The subject of series [10] is polyQ tracks. Conditions: administered orally; cited from earlier work.
Series [11] addresses Tau (Homo sapiens, UniProt P10636). Conditions: personal communication; cited from earlier work.
The test system of series [12] is monomeric expanded polyQ proteins. The following applies: cited from earlier work.

Sequence of full-length Orb2A (Q9VSR3 1-551 isoform Q9VSR3-2): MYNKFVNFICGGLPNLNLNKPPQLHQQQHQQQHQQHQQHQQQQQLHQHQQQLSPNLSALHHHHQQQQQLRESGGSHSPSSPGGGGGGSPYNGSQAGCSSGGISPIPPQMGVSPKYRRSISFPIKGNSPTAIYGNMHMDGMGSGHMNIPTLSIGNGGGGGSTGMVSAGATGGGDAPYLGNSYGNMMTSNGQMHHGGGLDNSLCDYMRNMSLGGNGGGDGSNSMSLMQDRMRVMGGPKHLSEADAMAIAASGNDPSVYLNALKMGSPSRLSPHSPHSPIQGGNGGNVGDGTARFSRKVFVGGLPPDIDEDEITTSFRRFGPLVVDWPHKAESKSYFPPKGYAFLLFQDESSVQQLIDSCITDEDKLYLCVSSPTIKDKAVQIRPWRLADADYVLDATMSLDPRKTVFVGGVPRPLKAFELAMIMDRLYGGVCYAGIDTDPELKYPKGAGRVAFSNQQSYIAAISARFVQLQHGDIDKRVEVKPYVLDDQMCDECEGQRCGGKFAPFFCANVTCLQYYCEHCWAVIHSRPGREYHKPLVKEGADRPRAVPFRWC
Sequence of Tau (P10636 whole entry): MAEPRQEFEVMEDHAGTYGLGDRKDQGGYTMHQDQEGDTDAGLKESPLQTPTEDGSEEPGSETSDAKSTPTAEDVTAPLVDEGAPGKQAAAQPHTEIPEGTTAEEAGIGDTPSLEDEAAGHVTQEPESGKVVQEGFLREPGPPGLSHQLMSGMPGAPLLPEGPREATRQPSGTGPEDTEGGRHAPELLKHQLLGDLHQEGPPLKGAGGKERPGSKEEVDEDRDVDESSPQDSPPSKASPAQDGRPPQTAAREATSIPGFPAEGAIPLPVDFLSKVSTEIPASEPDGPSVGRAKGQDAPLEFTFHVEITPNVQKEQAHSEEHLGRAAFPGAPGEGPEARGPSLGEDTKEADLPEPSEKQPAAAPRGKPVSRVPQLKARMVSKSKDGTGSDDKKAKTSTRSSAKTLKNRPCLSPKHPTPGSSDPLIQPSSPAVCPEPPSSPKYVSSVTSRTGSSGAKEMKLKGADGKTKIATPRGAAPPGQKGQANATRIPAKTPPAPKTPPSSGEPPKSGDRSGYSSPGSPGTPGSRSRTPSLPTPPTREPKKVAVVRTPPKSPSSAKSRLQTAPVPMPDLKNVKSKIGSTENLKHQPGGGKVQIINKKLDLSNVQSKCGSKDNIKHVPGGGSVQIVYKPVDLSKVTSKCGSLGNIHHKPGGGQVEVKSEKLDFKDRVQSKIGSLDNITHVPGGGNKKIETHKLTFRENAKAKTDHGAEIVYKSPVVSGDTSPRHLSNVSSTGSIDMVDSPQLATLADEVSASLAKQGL

`CC[C@H](C)[C@H](NC(=O)CNC(=O)[C@@H]1CCCN1C(=O)[C@H](Cc1c[nH]c2ccccc12)NC(=O)[C@H](Cc1c[nH]c2ccccc12)NC(=O)[C@H](CCCCN)NC(=O)[C@H](Cc1c[nH]c2ccccc12)NC(C)=O)C(=O)N[C@@H](Cc1ccccc1)C(N)=O` [QBP1-f, Ac-WKWWPGIF-NH2] (Ac-WKWWPGIF-NH2): in series [1], the “Orb2A PLD amyloidogenesis monitored by CR binding” value is given as “inhibited Orb2A PLD amyloidogenesis”. For the same compound, the “formation of oligomers and fibers by TEM” value in series [2] is “dramatic reduction in the formation of both oligomers and fibers”. For the same compound, in series [3], the “short-term memory (courtship suppression immediately after training)” value is “does not interfere with short-term memory”, the “long-term memory (courtship suppression after 24 hours)” value is given as “loss of long-term memory”, the “effect on fly development” value is given as “did not affect fly development” and the normal courtship behaviour entry is recorded as “slightly diminished”. The “Orb2A PLD amyloidogenesis monitored by turbidimetry” value in series [4] is “inhibited Orb2A PLD amyloidogenesis”. Further, the “oligomerization and loss of far-UV CD signal due to aggregation and precipitation” value in series [5] is “suppressed the oligomerization processes and decreased the loss of signal due to aggregation and precipitation”. For the same compound, in series [6], the “putative M events (SMFS incomplete recordings)” value was “fewer putative M events” and the “structures formed per molecule (SMFS force peaks)” value is “fewer structures formed per molecule”. Also, in series [6] (overnight 4° C., reduced from 37.7%), the “formation of M conformers (SMFS)” value came out at 16.1%. In addition, the “interaction with Orb2A by ITC” value in series [7] was “physically interacts with Orb2A”.

Turning to `CC[C@H](C)[C@H](NC(=O)[C@@H]1CCCN1C(=O)[C@H](Cc1c[nH]c2ccccc12)NC(C)=O)C(=O)N[C@@H](Cc1c[nH]c2ccccc12)C(=O)N[C@@H](CCCCN)C(=O)NCC(=O)N[C@@H](Cc1c[nH]c2ccccc12)C(=O)N[C@@H](Cc1ccccc1)C(N)=O` [SCR, Ac-WPIWKGWF-NH2] (Ac-WPIWKGWF-NH2), the “formation of oligomers and fibers by TEM” value in [2] is “not”. In addition, in series [3], the “short-term memory (courtship suppression immediately after training)” value is on record as “does not interfere with short-term memory”, the “long-term memory (courtship suppression after 24 hours)” value is “no effect”, the “effect on fly development” value is on record as “did not affect fly development” and the normal courtship behaviour result is recorded as “slightly diminished”. Further, the “oligomerization and loss of far-UV CD signal due to aggregation and precipitation” value in series [5] is “not”. For the same compound, the “effect on NM/M conformational transition (SMFS)” value in [6] (overnight 4° C.) is given as “no effect”. Moreover, the “interaction with Orb2A by ITC” value in series [7] is recorded as “marginal interaction”.

For the compound “QBP1: polyglutamine binding peptide 1, hydrophobic peptide, known inhibitor of amyloids including HttQ expansions (SNWKWWPGIFD; QBP1)”, the “amyloidogenesis (conformational polymorphism, oligomerization, fibrillogenesis)” value in series [8] and in series [9] was “inhibits amyloidogenesis” throughout. The “amyloidogenesis of polyQ tracks in Drosophila” value in [10] is “can inhibit amyloidogenesis”. Also, the amyloidogenesis entry in series [11] is “not”. In series [12], the “β-conformational transition, oligomerization, fibrillogenesis, cytotoxicity and neurodegeneration of expanded polyQ proteins” value was “suppressing oligomerization, fibrillogenesis as well as associated cytotoxicity and neurodegeneration”.
